The text below walks through data of patent US20250101378A1, “CULTURE MEDIUM AND CULTURE METHOD FOR MAMMARY EPITHELIAL CELLS, AND USE OF MAMMARY EPITHELIAL CELLS” (PRECEDO PHARMACEUTICALS CO., LTD, priority 2022, published 2025).

Holding throughout (type): cell-based, human
One assay relates to breast tumor cells (5 #). Put plainly: In vitro drug sensitivity test, Cell Titer-Glo cell viability. The note with it: 72 hours after drug administration, 1:3 dilution series from 2 times Cmax. The protocol:
I. Plating of primary breast cancer cells: using the culture medium of the invention in section (5) of Example 1, breast tumor cells (5 #) were cultured by the method described in section (1) of Example 2, and the cells were inoculated in a 384-well plate at a density of 3000 to 5000 cells/well, and the cells were subjected to adherent culture overnight.
(1) The drug storage plate was prepared by the concentration gradient dilution method: 10 μL of the drug stock solutions to be tested (the concentration of the drug stock solution was prepared at 2 times the maximum plasma concentration Cmax of the drug in the human body) were respectively taken and added to a 0.5 mL EP tube containing 20 μL of DMSO, and then 10 μL was aspirated from the above EP tube into a second 0.5 mL EP tube containing 20 μL of DMSO, that is, the drug was diluted 1:3. The above process was repeated for gradually dilution until 8 or 9 concentrations required for dosing were obtained. Different concentrations of drugs were added to the 384-well drug storage plate. Equal volume of DMSO was added to each well of the solvent control group as a control. In this example, the drugs to be tested are clinically approved anti-tumor drugs, docetaxel (MCE), palbociclib (MCE), dovitinib (MCE), capecitabine (MCE), crizotinib (MCE) and etoposide (MCE).
(2) Using a high-throughput automated workstation (purchased from Perkin Elmer), different concentrations of drugs and solvent controls in the 384-well drug storage plates were added to the 384-well cell culture plates plated with the breast tumor cells. Both the drug groups and the solvent control groups were set up with 3 replicate wells. The volume of drug added to each well was 100 nL.
(3) Cell activity detection: 72 hours after drug administration, Cell Titer-Glo assay kit (manufactured by Promega) was used to detect the chemiluminescence value of the cultured cells after drug administration. The magnitude of the chemiluminescence value reflects the cell viability and the effect of the drug on the cell viability. The prepared Cell Titer-Glo detection solution was added to each well, and a microplate reader was used to detect the chemiluminescence value after mixing.
Graphpad Prism 7.0 software was used to draw graphs and calculate the median inhibition concentration IC50.

Assay [1] deals with primary breast cancer cells isolated from breast tumor tissue. Kind of assay: Screening of additive factors in the culture medium of primary mammary epithelial cells (cell count after 14 days). The arrangement: key to Level of promoting proliferation: +: compared with the Basal Medium, the culture medium added with the additive(s) has the effect of promoting the proliferation of at least three cases of primary breast cancer cells isolated from breast tumor tissue; ++: the number of “+” indicates the degree of proliferation promotion; ++++: the number of “+” indicates the degree of proliferation promotion; −: the culture medium added with the additive(s) has the effect of inhibiting the proliferation of at least two cases of primary breast cancer cells isolated from breast tumor tissue; the culture medium added with the additive(s) has no significant effect on the proliferation of at least three cases of primary breast cancer cells isolated from breast tumor tissue. Conditions: 14 days of culture; for Level of promoting proliferation: additive added to Basal Medium at the concentration of Table 1, cell count compared with Basal Medium, five breast tumor samples; for promotion of growth of primary breast tumor cells (in words): additive added to Basal Medium, compared with Basal Medium. The protocol:
First, a basal culture medium based on WO 2021/088119 was prepared. To a commercially available DMEM/F-12 culture medium, GlutaMAX-I (manufactured by Thermo Fisher Scientific) was added at the concentration specified in the instruction manual (1:100 dilution), human insulin (Sigma) was added at a final concentration of 10 μg/ml, ROCK inhibitor Y27632 (Sigma) was added at a final concentration of 10 μM, penicillin-streptomycin (Thermo Fisher Scientific) was added at a 1:100 dilution, human amphiregulin (manufactured by R&D systems) was added at a final concentration of 20 ng/ml, epidermal growth factor (EGF, manufactured by Peprotech) was added at a final concentration of 10 ng/ml, B27 (Thermo Fisher Scientific) was added at a 1:50 dilution, human neuregulin 1 (Peprotech) was added at a final concentration of 10 nM, fibroblast growth factor 7 (FGF7, R&D systems) was added at a final concentration of 10 ng/ml), and TGFβ1 inhibitor A8301 (manufactured by MCE) was added at a final concentration of 500 nM, to prepare a basal culture medium for primary mammary epithelial cells, hereinafter referred to as “Basal Medium”.
Then, different types of additives (Table 1) were added to the Basal Medium to prepare culture mediums for mammary epithelial cells containing different additives. The culture medium with different components was added to a 24-well plate coated with extracellular matrix gel at a volume of 500 μl/well, and 3 replicates were prepared for each culture medium formulation. The breast cancer cells (1 #) isolated from the breast tumor tissue in Example (1) were inoculated at a cell density of 3×10^4 cells/well in a 24-well culture plate coated with extracellular matrix gel, and cultured at 37° C. and 5% CO2 concentration using different culture medium formulations, respectively. The culture medium was replaced every 3 days after the start of culture. After 14 days of culture, the cells were counted. Basal Medium without addition of any additive shown in Table 1 was used as an experimental control.
The tumor cells isolated from the rest four cases of breast tumor tissue samples were also cultured and counted in the same manner as above.

Assay [2] relates to primary breast cancer cells (2 #). Put plainly: Optimization of the concentration of additives in the culture medium (cell count on day 14, FIGS. 1A-1G). Conditions: graded concentrations added to Formulations 1-7, 96-well plate, day 14 cell count. The protocol:
The following 7 different formulations of culture mediums were further prepared: • Formulation 1: the Basal Medium was added with 1:100-fold diluted MEM-NEAA, 1 mM sodium pyruvate, 50 ng/ml IGF1, 20 ng/ml bFGF, 10 ng/ml TNF-α and 20 ng/ml FGF10; • Formulation 2: the Basal Medium was added with 10 nM β-estradiol, 1 mM sodium pyruvate, 50 ng/ml IGF1, 20 ng/ml bFGF, 10 ng/ml TNF-α and 20 ng/ml of FGF10; • Formulation 3: the Basal Medium was added with 10 nM β-estradiol, 1:100-fold diluted MEM-NEAA, 50 ng/ml IGF1, 20 ng/ml bFGF, and 10 ng/ml TNF-α and 20 ng/ml FGF10; • Formulation 4: the Basal Medium was added with 10 nM β-estradiol, 1:100-fold diluted MEM-NEAA, 1 mM sodium pyruvate, 20 ng/ml bFGF, and 10 ng/ml TNF-α and 20 ng/ml FGF10; • Formulation 5: the Basal Medium was added with 10 nM β-estradiol, 1:100-fold diluted MEM-NEAA, 1 mM sodium pyruvate, 50 ng/ml IGF1, and 10 ng/ml TNF-α and FGF10 at 20 ng/ml; • Formulation 6: the Basal Medium was added with 10 nM β-estradiol, 1:100-fold diluted MEM-NEAA, 1 mM sodium pyruvate, 50 ng/ml IGF1, 20 ng/ml bFGF and 20 ng/ml FGF10; • Formulation 7: the Basal Medium was added with 10 nM β-estradiol, 1:100-fold diluted MEM-NEAA, 1 mM sodium pyruvate, 50 ng/ml IGF1, 20 ng/ml bFGF and 10 ng/ml of TNF-α.
Subsequently, β-estradiol (Sigma) was added to Formulation 1 to prepare culture mediums for human mammary epithelial cells containing β-estradiol at final concentrations of 5 nM, 10 nM, 50 nM, and 100 nM, and each culture medium was added to a 96-well plate coated with Matrigel at a volume of 100 μl/well, with 3 replicates for each concentration. The primary breast cancer cells (2 #) isolated from breast tumor tissue in Example (1) were seeded in a Matrigel-coated 96-well culture plate at a density of 500 cells/well and cultured in Formulation 1 containing different concentrations of β-estradiol at 37° C. and 5% CO2. The culture medium was replaced every 3 days after the start of culture. On the 14th day of culture, the cells were counted. Formulation 1 was used as an experimental control, i.e., the content of β-estradiol was 0 nM.
Non-essential amino acids (MEM-NEAA) additive (Thermo Fisher) was added to Formulation 2 at a dilution ratio of 1:200, 1:100, 1:50, and 1:20 to prepare culture mediums for human mammary epithelial cells containing different concentrations of non-essential amino acids. The culture mediums of different formulations were added to a 96-well plate coated with Matrigel at a volume of 100 μl/well, with 3 replicates for each concentration. Primary cells were cultured and counted in the same manner as above. As an experimental control, Formulation 2 was used, i.e., the content of non-essential amino acids was 0.
Similarly, sodium pyruvate (Thermo Fisher) was added to Formulation 3 to prepare culture mediums for human mammary epithelial cells containing sodium pyruvate at final concentrations of 0.5 mM, 1 mM, 2 mM, and 4 mM. […] Primary cells were cultured and counted in the same manner as above. […]
Then, insulin-like growth factor 1 (IGF1, manufactured by R&D) was added to formulation 4 to prepare culture mediums for human mammary epithelial cells containing IGF1 at final concentrations of 10 ng/ml, 20 ng/ml, 50 ng/ml, 100 ng/ml, and 200 ng/ml, and the culture mediums containing different concentrations of IGF1 were added to a 96-well plate coated with Matrigel at a volume of 100 μl/well, with 3 replicates for each concentration. Primary cells were cultured and counted in the same manner as above. […]

Regarding `CCCCCOC(=O)Nc1nc(=O)n([C@@H]2O[C@H](C)[C@@H](O)[C@H]2O)cc1F` [capecitabine], the “sensitivity of breast cancer cells to drug (in words)” value (“sensitivity of breast cancer cells” for short) in the assay on breast tumor cells (5 #) is on record as “less sensitive”. For the molecule `C[C@@H](Oc1cc(-c2cnn(C3CCNCC3)c2)cnc1N)c1c(Cl)ccc(F)c1Cl` [crizotinib], the “sensitivity of breast cancer cells” value in the assay on breast tumor cells (5 #) is given as “less sensitive”. As to `CC(=O)O[C@@]12CO[C@@H]1C[C@H](O)[C@@]1(C)C(=O)[C@H](O)C3=C(C)[C@@H](OC(=O)[C@H](O)[C@@H](NC(=O)OC(C)(C)C)c4ccccc4)C[C@@](O)([C@@H](OC(=O)c4ccccc4)[C@H]21)C3(C)C` [docetaxel], in the assay on breast tumor cells (5 #), the “sensitivity of breast cancer cells” value was “more sensitive”.

In the case of `COc1cc([C@@H]2c3cc4c(cc3[C@@H](O[C@@H]3O[C@@H]5CO[C@@H](C)O[C@H]5[C@H](O)[C@H]3O)[C@H]3COC(=O)[C@H]23)OCO4)cc(OC)c1O` [etoposide], the “sensitivity of breast cancer cells” value in the assay on breast tumor cells (5 #) was “more sensitive”. Turning to `CC(=O)C(=O)[O-].[Na+]` [sodium pyruvate], the “Level of promoting proliferation” value in assay [1] was “∘”. For the molecule `C[C@]12CC[C@@H]3c4ccc(O)cc4CC[C@H]3[C@@H]1CC[C@@H]2O` [β-estradiol], in assay [1], the “Level of promoting proliferation” value is reported as “∘”. Moreover, the “effect on in vitro proliferation of primary breast cancer cells (in words)” value (“effect on in vitro proliferation” for short) in assay [2] was “obvious proliferative effects”. Consider basic fibroblast growth factor, for which, in assay [1], the “Level of promoting proliferation” value is “++” and the “promotion of growth of primary breast tumor cells (in words)” value (shortened to “promotion”) is given as “stronger”. Moreover, in assay [2], the “effect on in vitro proliferation” value is “obvious proliferative effects”.

As for insulin-like growth factor 1, in assay [1], the “Level of promoting proliferation” value is “+” and the “promotion” value was “promote the growth”. The “effect on in vitro proliferation” value in assay [2] was “obvious proliferative effects”.

Regarding tumor necrosis factor α, in assay [1], the “Level of promoting proliferation” value is on record as “++” and the “promotion” value was “stronger”. Moreover, the “effect on in vitro proliferation” value in assay [2] is recorded as “obvious proliferative effects”.

B1: fibroblast growth factor 10 (protein, UniProt O15520 38-208, looked up)
Fibroblast growth factor 10: QALGQDMVSPEATNSSSSSFSSPSSAGRHVRSYNHLQGDVRWRKLFSFTKYFLKIEKNGKVSGTKKENCPYSILEITSVEIGVVAVKAINSNYYLAMNKKGKLYGSKEFNNDCKLKERIEENGYNTYASFNWQHNGRQMYVALNGKGAPRRGQKTRRKNTSAHFLPMVVHS
notes: growth factor used as culture medium additive
Consider B1, for which, in assay [1], the “Level of promoting proliferation” value was “+” and the “promotion” value was “promote the growth”. Also, the “effect on in vitro proliferation” value in assay [2] is “dose-dependent pro-proliferation effect”.
